The structures appear in SMILES notation.

One data set concerns Abca4−/−Rdh8−/− mice. The data set can be described thus: Bright light-induced retinal degeneration (SD-OCT, HE staining). As to conditions: 50 or 200 mg kg^−1 bw i.p. 30 min before 10,000 lux for 30 min; day 7. It is filed as in vivo, mouse. As to the method: Abca4^−/−Rdh8^−/− [42] mice with a 129 Sv/Ev or C57BL/6 mixed background were used for light-induced retinal degeneration assays. […] Male and female C57BL/6 mice (Jackson Laboratory, Bar Harbor, ME) at 6 weeks of age were used to test the effects of YC-001 treatment on the retinoid cycle and bw as well as to determine parenterally administrated YC-001 entering the eyes. YC-001 was dissolved in DMSO at 80–160 mg mL^−1, and the solution was provided to mice by i.p. injection. All mice were housed and maintained in a 12 h light (≤10 lux)/12 h dark cycle in the Animal Resource Center at the School of Medicine, CWRU. […]
Retinal degeneration was initiated by exposing Abca4^−/−Rdh8^−/− mice for 30 min to white light with an intensity of 10,000 lux (150-W spiral lamp, Hampton Bay, Home Depot, Atlanta, GA USA)[43]. […] Retinal structures were analyzed by SD-OCT seven days after bright light exposure. […]
To assess the effect of YC-001 treatment on Abca4^−/−Rdh8^−/− mice following bright light-induced retinal degeneration, we performed ultrahigh-resolution SD-OCT (Bioptigen, Morrisville, NC) for in vivo imaging of mouse retinas. […] To measure changes to photoreceptors in the retinas challenged with bright light and assess the effect of YC-001 on retinal protection, the thickness of the ONL was measured along the scanned SD-OCT image at 8 points from the nasal to temporal end of the retina. […]

Data set [1] is described as follows: Quantification of YC-001 in mouse eye by HPLC. Type of data set: in vivo, C57BL/6 mouse. As for the experimental part:
To measure the amount of YC-001 in the eye following systemic delivery, YC-001 was administered to C57BL/6 mice by i.p. injection at a dose of 200 mg kg^−1 bw. Mice then were euthanized at 30 min, 3 h and 24 h after these injections, and their eyes were removed for analysis. Eyes from two mice under the same treatment were homogenized on ice in 1 mL of PBS:methanol (1:1 ratio). Four-mL of hexanes were then added to the homogenized sample, and the mixture was vortexed for 15 s. The mixture was centrifuged at 3,220×g for 15 min at 4 °C to separate the hexanes from the aqueous layer. From the top hexane layer, 3.5 mL was transferred to a glass vial. This sample was then dried in a Savant speed vacuum concentrator (Thermofisher, Waltham, Massachusetts, USA) and dissolved in 300 µL methanol. One hundred-µL of dissolved sample were injected into an HPLC system connected to an Agilent Sil column (5 μm, 4.6 × 250 mm; Agilent Technologies, Santa Clara, CA) for separation with 10% ethyl acetate in hexanes at a flow rate 1.4 mL min^−1. A chromatogram of absorption at 340 nm was then obtained. A YC-001 standard was subjected to the same procedures as the ocular samples and used to establish a retention time at 13.2 min. By comparing ocular samples to its standard curve of YC-001, the amount of YC-001 was then quantified in pmol per eye at different time points after its systemic administration. The identity of YC-001 in the peak fraction with a retention time of […] was confirmed by LC–MS using the same chromatography method as applied for HPLC.

The next data set deals with T1, human clarin-1 N48K (Homo sapiens, UniProt P58418, N48K).
T1 construct: expressed in transfected cells
T1 sequence (P58418 whole entry N48K): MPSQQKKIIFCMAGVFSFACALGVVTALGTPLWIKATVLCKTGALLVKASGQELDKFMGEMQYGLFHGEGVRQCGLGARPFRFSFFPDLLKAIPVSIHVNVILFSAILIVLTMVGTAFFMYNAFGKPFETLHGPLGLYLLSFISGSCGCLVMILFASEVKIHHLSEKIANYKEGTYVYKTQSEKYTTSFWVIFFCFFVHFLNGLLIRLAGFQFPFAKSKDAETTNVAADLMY
The data set can be described thus: Image-based analysis of Clarin-1-N48K-Venus in HEK 293 cells. Type of data set: cell-based. To be noted: 24 h. As to the method: HEK 293 stable cells co-expressing human clarin-1 N48K-Venus fluorescent protein and DsRed-Express-DR fusion protein were obtained from Dr. Yoshikazu Imanishi at Case Western Reserve University (CWRU). Cells were cultured in DMEM medium with 10% FBS following guidelines from ATCC. To test effects of YC-001 treatments on clarin-1 N48K-Venus amounts in these cells, an image-based assay was performed. Briefly, cells were seeded at 20,000 cells per well in 40 µL per well DMEM medium with 10% FBS in a 384-well PerkinElmer View plate coated with poly-D-lysine and cultured at 37 °C with 5% CO2 for 24 h. Cells then were treated with 10 µL per well DMEM medium with 10% FBS containing 5× the final concentration of tested compounds. […] Each compound was tested with 10 doses in a twofold dilution series, featuring three biological replicates. The 384-well plate was put back for incubation at 37 °C with 5% CO2. After 24 h of exposure to test compounds, the plate was removed, and the medium was aspirated and replaced by 20 µL per well of 4% paraformaldehyde for fixation at RT for 20 min. […] Images were analyzed by the Columbus storage and analysis system (PerkinElmer). Hoechst33342 fluorescence images were used to define nuclei and count cells. […] YFP and DsRed fluorescence intensities per cell were measured in each well.

A further data set has as its system P23H opsin. To be noted: cited from earlier work.

As to `O=C1OCC(c2ccc(Cl)s2)=C1c1cccs1` [YC-001], the “protection of the ONL from light-induced damage” value in the data set on Abca4−/−Rdh8−/− mice was “dose-dependent protection of the ONL”. Moreover, the “amount of YC-001 in eye” value was “About 70 pmol per eye” in data set [1] (0.5 h after i.p. 200 mg kg^−1 bw), 280 pmol per eye in data set [1] (3 h after i.p. 200 mg kg^−1 bw) and “undetectable” in data set [1] (24 h after i.p. 200 mg kg^−1 bw). Further, the “effect on amount or stability of the clarin-1 N48K mutant” value at human clarin-1 N48K was “did not affect the amount or stability”. Further, the “effect of co-treatment with scriptaid” value with P23H opsin is “synergistic effect”.

Source of the values: publication PMC5958115, “A novel small molecule chaperone of rod opsin and its potential therapy for retinal degeneration” (Nature Communications, 2018).
